Assay results taken from patent publication US20070196886A1 (priority 2004, published 2007).
Read-outs that look alike come from different tables or passages of the source.

Tests used:
RNAP holoenzyme [1] = target: T1, RNAP holoenzyme (Escherichia coli, UniProt P0A8T7+P0A8V2); type: biochemical; details: for Vmax: FIG. 3E
Protocol: Following 15 min at 37° C., 0.5 μl 1 mg/ml heparin was added, and, following a further 2 min at 37° C., RNA synthesis was initiated by addition of 2 μl 5 mM ApA and 125 μM (or 250 μM, 500 μM, and 1 mM) each of [α-^32P]UTP (0.6 Bq/fmol), ATP, CTP, GTP. Following 5 min at 37° C., reactions were terminated by addition of 10 μl 80% formamide, 10 mM EDTA, 0.04% bromophenol blue, and 0.04% xylene cyanol. Products were heated 10 min at 90° C., resolved by urea-PAGE (Sambrook and Russel, (2001)), and quantified using a storage-phosphor scanner (Storm 860; Molecular Dynamics). Identities of tri- and tetranucleotide abortive products were defined as in Borowiec and Gralla, (1985) J. Mol. Biol. 184, 587-598). Data were fit to full-competitive, partial-competitive, full-noncompetitive, partial-noncompetitive, full-uncompetitive, partial-uncompetitive, full-mixed, and partial-mixed models of inhibition using the Fit-To-Model feature of the SigmaPlot Enzyme Kinetics Module (SPSS).

[2] = target: T2, halted transcription elongation complex containing 12 nt of RNA (TEC12) (Escherichia coli, UniProt P0A8T7+P0A8V2); assay: Transcription experiment starting with halted elongation complex (TEC12); type: biochemical; details: 0, 1, 10, or 100 μM MccJ25; compared with open-complex experiments
T2 construct: made in house
Protocol: TEC12 was prepared by reaction for 5 min at 37° C. with 0.5 mM ApA, and 12.5 μM each of [α-^32P]UTP, ATP, and GTP.

bacterial RNAP = details: unpublished data
RNAP holoenzyme [3] = target: T1, RNAP holoenzyme; assay: Electrophoretic mobility shift assays (open-complex formation); type: biochemical; details: MccJ25 at 1, 10, or 100 μM; lacUV5 promoter
Protocol: Following 15 min at 37° C., 0.5 μl 1 mg/ml heparin was added (to disrupt non-specific complexes), and, following a further 2 min at 37° C., reaction mixtures were applied to 5% polyacrylamide slab gels (30:1 acrylamide/bisacrylamide; 6×9×0.1 cm) and electrophoresed in 90 mM Tris-borate (pH 8.0) and 0.2 mM EDTA (20 V/cm; 30 min at 37° C.) and analyzed using a fluorescence scanner (Storm 860; Molecular Dynamics)

[4] = tested on: Strain DH5α transformed with pRL663 or a pRL663 derivative

T1 sequence (P0A8V2 whole entry): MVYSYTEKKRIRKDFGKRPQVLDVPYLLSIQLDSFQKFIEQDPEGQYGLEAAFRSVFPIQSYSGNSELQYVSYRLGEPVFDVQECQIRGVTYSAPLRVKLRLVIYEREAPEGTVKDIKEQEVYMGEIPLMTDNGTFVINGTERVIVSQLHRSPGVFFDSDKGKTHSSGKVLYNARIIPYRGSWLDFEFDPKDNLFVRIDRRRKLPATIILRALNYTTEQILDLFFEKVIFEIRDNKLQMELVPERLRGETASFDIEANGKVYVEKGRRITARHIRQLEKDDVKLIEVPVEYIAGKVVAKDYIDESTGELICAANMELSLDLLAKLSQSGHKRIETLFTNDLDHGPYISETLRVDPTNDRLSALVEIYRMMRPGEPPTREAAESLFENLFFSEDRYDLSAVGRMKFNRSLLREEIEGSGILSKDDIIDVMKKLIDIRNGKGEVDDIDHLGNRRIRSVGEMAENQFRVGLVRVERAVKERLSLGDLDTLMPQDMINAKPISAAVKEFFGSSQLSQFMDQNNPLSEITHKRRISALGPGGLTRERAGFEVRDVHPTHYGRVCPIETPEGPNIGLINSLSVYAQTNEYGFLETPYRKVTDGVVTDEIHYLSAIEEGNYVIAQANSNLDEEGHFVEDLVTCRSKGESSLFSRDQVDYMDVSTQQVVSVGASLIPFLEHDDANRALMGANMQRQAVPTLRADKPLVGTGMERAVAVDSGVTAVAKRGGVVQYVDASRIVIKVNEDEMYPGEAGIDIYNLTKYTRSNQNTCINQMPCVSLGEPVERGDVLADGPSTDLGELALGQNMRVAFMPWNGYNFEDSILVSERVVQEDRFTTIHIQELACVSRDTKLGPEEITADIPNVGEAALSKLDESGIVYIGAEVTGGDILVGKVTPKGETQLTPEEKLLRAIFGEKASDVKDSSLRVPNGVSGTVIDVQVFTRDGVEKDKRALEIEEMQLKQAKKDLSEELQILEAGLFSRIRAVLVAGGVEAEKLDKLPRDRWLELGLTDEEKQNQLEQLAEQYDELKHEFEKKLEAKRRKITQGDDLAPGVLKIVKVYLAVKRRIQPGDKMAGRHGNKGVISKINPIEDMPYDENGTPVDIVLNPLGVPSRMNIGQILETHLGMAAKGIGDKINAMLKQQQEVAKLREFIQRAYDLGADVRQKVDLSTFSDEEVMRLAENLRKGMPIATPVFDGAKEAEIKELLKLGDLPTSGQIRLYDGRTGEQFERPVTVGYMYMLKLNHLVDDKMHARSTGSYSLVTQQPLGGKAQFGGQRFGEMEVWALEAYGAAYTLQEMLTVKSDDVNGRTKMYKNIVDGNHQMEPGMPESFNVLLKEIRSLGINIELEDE
T1 sequence (P00579 whole entry, further chain): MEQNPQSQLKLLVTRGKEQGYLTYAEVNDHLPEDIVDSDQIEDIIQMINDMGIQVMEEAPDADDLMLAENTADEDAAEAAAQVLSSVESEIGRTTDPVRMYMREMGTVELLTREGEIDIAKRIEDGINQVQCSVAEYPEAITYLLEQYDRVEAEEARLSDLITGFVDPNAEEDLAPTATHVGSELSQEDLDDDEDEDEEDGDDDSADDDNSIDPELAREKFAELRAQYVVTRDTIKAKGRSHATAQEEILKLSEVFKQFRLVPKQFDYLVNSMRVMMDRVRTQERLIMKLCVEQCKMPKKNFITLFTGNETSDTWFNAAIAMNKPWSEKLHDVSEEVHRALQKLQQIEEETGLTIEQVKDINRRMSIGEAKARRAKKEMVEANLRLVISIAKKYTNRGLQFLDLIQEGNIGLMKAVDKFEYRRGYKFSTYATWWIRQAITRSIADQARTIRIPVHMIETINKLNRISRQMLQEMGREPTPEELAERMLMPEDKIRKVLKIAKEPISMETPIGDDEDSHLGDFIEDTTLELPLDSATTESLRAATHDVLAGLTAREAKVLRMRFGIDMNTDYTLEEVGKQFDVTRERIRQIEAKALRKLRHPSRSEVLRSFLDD
T1 sequence (P0A7Z4 whole entry, further chain): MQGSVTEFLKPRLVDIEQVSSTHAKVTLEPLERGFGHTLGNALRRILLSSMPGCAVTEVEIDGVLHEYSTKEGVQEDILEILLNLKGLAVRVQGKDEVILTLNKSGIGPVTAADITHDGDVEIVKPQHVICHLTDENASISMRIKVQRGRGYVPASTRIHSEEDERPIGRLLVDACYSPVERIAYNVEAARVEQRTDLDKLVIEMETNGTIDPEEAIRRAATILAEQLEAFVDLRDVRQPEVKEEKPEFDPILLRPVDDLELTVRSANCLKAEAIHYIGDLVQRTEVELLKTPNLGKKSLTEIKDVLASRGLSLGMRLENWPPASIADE
T1 sequence (P0A800 whole entry, further chain): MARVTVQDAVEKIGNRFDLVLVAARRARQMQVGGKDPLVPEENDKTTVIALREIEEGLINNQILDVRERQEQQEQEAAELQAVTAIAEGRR
T1 sequence (P0A8T7 whole entry): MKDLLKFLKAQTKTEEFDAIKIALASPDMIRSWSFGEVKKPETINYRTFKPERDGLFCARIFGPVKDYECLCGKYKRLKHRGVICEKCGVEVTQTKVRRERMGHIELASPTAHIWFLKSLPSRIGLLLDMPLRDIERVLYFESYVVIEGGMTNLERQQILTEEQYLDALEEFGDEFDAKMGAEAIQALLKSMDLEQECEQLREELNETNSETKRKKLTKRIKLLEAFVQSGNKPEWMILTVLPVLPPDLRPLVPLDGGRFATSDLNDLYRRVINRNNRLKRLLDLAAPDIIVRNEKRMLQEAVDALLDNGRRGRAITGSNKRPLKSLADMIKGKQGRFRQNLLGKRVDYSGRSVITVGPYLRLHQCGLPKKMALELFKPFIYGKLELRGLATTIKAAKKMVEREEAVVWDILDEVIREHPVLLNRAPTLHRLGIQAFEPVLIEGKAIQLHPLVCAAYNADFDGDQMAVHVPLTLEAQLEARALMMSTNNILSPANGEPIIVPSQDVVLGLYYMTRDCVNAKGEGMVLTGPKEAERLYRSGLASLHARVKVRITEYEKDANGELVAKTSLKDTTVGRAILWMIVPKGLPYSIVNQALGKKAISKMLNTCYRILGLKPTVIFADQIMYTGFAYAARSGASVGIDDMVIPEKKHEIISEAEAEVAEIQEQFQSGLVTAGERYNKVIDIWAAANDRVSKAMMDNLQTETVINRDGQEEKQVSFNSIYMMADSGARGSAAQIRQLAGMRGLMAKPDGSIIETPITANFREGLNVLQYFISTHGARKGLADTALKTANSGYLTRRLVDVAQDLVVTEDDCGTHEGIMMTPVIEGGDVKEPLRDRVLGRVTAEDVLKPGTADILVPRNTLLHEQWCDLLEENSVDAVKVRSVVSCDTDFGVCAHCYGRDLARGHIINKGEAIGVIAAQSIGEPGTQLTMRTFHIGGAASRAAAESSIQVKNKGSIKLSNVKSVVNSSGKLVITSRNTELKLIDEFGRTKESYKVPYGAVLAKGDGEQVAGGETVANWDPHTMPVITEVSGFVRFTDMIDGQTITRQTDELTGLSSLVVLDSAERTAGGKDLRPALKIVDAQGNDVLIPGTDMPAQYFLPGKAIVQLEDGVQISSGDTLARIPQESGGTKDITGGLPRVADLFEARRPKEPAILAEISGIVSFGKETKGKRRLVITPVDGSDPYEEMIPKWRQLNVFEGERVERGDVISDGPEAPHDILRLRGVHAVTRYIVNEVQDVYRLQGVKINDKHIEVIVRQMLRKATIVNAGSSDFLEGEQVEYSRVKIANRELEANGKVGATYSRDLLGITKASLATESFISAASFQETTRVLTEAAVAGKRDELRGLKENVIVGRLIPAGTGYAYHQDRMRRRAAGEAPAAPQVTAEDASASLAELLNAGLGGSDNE

Substance: Microcin J25 [MccJ25]
- mode of inhibition with respect to NTPs (RNAP holoenzyme [1]): partial competitive
- inhibition of formation of abortive products (3 nt and 4 nt RNA species) (RNAP holoenzyme [1]; 100 μM MccJ25, 5 min at 37° C.): 86%
- inhibition of formation of the full-length product (26 nt RNA species) (RNAP holoenzyme [1]; 100 μM MccJ25, 5 min at 37° C.): 94%
- effect of high NTP concentrations on inhibition (RNAP holoenzyme [1]; NTP 12.5, 25, 50, 100 μM): can overcome inhibition
- Vmax (RNAP holoenzyme [1]; at 1 μM MccJ25): 1.9±0.4 mol/mol template/min
- Vmax (RNAP holoenzyme [1]; at 10 μM MccJ25): 1.4±0.7 mol/mol template/min
- inhibition of formation of full-length product starting with halted elongation complex [2]: equivalent results
- cross-resistance with rifampicin (bacterial RNAP): do not exhibit cross-resistance with rifampicin
- effect on formation of open complex (RNAP holoenzyme [3]): no effect
- increase in MBC ([4]; 18 of 22 MccJ25-resistant mutants from random mutagenesis): ≥ 50 fold
- increase in MBC ([4]; all 22 MccJ25-resistant mutants from random mutagenesis): ≥ 5 fold
- MBC ([4]; no substitution (wild-type β′), 2 h at 37° C.): 0 µg/mL
- MBC ([4]; rpoB 543 Ala→Leu, 549 Asp→Tyr, multiple-substitution mutant): 50 µg/mL
- MBC ([4]; rpoB 543 Ala→Pro, 546 Glu→Gly, multiple-substitution mutant): 50 µg/mL
- MBC ([4]; rpoB 544 Gly→Asp, saturation mutagenesis): 50 µg/mL
- MBC ([4]; rpoB 545 Phe→Leu, 546 Glu→Asp, multiple-substitution mutant): 50 µg/mL
- MBC ([4]; rpoB 545 Phe→Ser, saturation mutagenesis): 50 µg/mL
- MBC ([4]; rpoB 548 Arg→Gln, saturation mutagenesis): 50 µg/mL
- MBC ([4]; rpoB 549 Asp→His, saturation mutagenesis): 50 µg/mL
- MBC ([4]; rpoC 428 Thr→Asn, saturation mutagenesis): 500 µg/mL
- MBC ([4]; rpoC 428 Thr→Ile, saturation mutagenesis): 500 µg/mL
- MBC ([4]; rpoC 429 Leu→Gln, saturation mutagenesis): 500 µg/mL
- MBC ([4]; rpoC 430 His→Tyr, saturation mutagenesis): 500 µg/mL
- MBC ([4]; rpoC 493 Pro→Thr, 498 Pro→Thr, multiple-substitution mutant): 100 µg/mL
- MBC ([4]; rpoC 498 Pro→Gln, saturation mutagenesis): 1000 µg/mL
- MBC ([4]; rpoC 498 Pro→Leu, saturation mutagenesis): 1000 µg/mL
- MBC ([4]; rpoC 503 Ser→Pro, saturation mutagenesis): 500 µg/mL
- MBC ([4]; rpoC 503 Ser→Tyr, saturation mutagenesis): 500 µg/mL
- MBC ([4]; rpoC 504 Gln→Arg, saturation mutagenesis): 500 µg/mL
- MBC ([4]; rpoC 504 Gln→Glu, saturation mutagenesis): 500 µg/mL
- MBC ([4]; rpoC 508 Leu→Val, saturation mutagenesis): 50 µg/mL
- MBC ([4]; rpoC 680 Asn→Lys, saturation mutagenesis): 500 µg/mL
- MBC ([4]; rpoC 684 Asp→Ala, saturation mutagenesis): 1000 µg/mL
- MBC ([4]; rpoC 684 Asp→Glu, saturation mutagenesis): 500 µg/mL
- MBC ([4]; rpoC 684 Asp→Tyr, saturation mutagenesis): 500 µg/mL
- MBC ([4]; rpoC 684 Asp→Val, saturation mutagenesis): 500 µg/mL
- MBC ([4]; rpoC 732 Gly→Asp, saturation mutagenesis): 100 µg/mL
- MBC ([4]; rpoC 732 Gly→Asp, 733 Ser→Ala, multiple-substitution mutant): 100 µg/mL
- MBC ([4]; rpoC 732 Gly→Asp, Gly→Thr, multiple-substitution mutant): 500 µg/mL
- MBC ([4]; rpoC 733 Ser→Phe, saturation mutagenesis): 100 µg/mL
- MBC ([4]; rpoC 733 Ser→Tyr, saturation mutagenesis): 100 µg/mL
- MBC ([4]; rpoC 733 Ser→Val, saturation mutagenesis): 500 µg/mL
- MBC ([4]; rpoC 733 Ser→Val, 734 Ala→Gly, multiple-substitution mutant): 100 µg/mL
- MBC ([4]; rpoC 735 Ala→Δ, saturation mutagenesis): 1000 µg/mL
- MBC ([4]; rpoC 736 Gln→Pro, saturation mutagenesis): 500 µg/mL
- MBC ([4]; rpoC 738 Arg→Leu, saturation mutagenesis): 50 µg/mL
- MBC ([4]; rpoC 744 Arg→His, saturation mutagenesis): 50 µg/mL
- MBC ([4]; rpoC 744 Arg→Pro, saturation mutagenesis): 50 µg/mL
- MBC ([4]; rpoC 748 Ala→Pro, saturation mutagenesis): 100 µg/mL
- MBC ([4]; rpoC 775 Ser→Cys, saturation mutagenesis): 500 µg/mL
- MBC ([4]; rpoC 776 Thr→Ile, saturation mutagenesis): 500 µg/mL
- MBC ([4]; rpoC 777 His→Pro, saturation mutagenesis): 500 µg/mL
- MBC ([4]; rpoC 777 His→Ser, 778 Gly→Ala, multiple-substitution mutant): 500 µg/mL
- MBC ([4]; rpoC 777 His→Tyr, saturation mutagenesis): 1000 µg/mL
- MBC ([4]; rpoC 779 Ala→Gly, saturation mutagenesis): 500 µg/mL
- MBC ([4]; rpoC 779 Ala→Pro, saturation mutagenesis): 500 µg/mL
- MBC ([4]; rpoC 779 Ala→Thr, saturation mutagenesis): 1000 µg/mL
- MBC ([4]; rpoC 780 Arg→Cys, saturation mutagenesis): 1000 µg/mL
- MBC ([4]; rpoC 782 Gly→Ala, saturation mutagenesis): 1000 µg/mL
- MBC ([4]; rpoC 783 Leu→Pro, saturation mutagenesis): 100 µg/mL
- MBC ([4]; rpoC 784 Ala→Glu, saturation mutagenesis): 500 µg/mL
- MBC ([4]; rpoC 785 Asp→Gly, saturation mutagenesis): 500 µg/mL
- MBC ([4]; rpoC 786 Thr→Ala, saturation mutagenesis): 500 µg/mL
- MBC ([4]; rpoC 786 Thr→Ile, saturation mutagenesis): 500 µg/mL
- MBC ([4]; rpoC 788 Leu→Met, saturation mutagenesis): 1000 µg/mL
- MBC ([4]; rpoC 789 Lys→Arg, saturation mutagenesis): 500 µg/mL
- MBC ([4]; rpoC 789 Lys→Asn, saturation mutagenesis): 1000 µg/mL
- MBC ([4]; rpoC 789 Lys→Gln, saturation mutagenesis): 1000 µg/mL
- MBC ([4]; rpoC 790 Thr→Ala, saturation mutagenesis): 1000 µg/mL
- MBC ([4]; rpoC 790 Thr→Asn, saturation mutagenesis): 500 µg/mL
- MBC ([4]; rpoC 790 Thr→Ile, saturation mutagenesis): 1000 µg/mL
- MBC ([4]; rpoC 790 Thr→Ser, saturation mutagenesis): 500 µg/mL
- MBC ([4]; rpoC 922 Cys→Tyr, saturation mutagenesis): 500 µg/mL
- MBC ([4]; rpoC 926 Pro→Ser, saturation mutagenesis): 500 µg/mL
- MBC ([4]; rpoC 927 Gly→Cys, saturation mutagenesis): 1000 µg/mL
- MBC ([4]; rpoC 927 Gly→Ser, saturation mutagenesis): 1000 µg/mL
- MBC ([4]; rpoC 930 Leu→Met, saturation mutagenesis): 1000 µg/mL
- MBC ([4]; rpoC 931 Thr→Ala, saturation mutagenesis): 1000 µg/mL
- MBC ([4]; rpoC 931 Thr→Ile, saturation mutagenesis): 1000 µg/mL
- MBC ([4]; rpoC 932 Met→Ile, saturation mutagenesis): 1000 µg/mL
- MBC ([4]; rpoC 933 Arg→Cys, saturation mutagenesis): 1000 µg/mL
- MBC ([4]; rpoC 1136 Gly→Ala, saturation mutagenesis): 500 µg/mL
- MBC ([4]; rpoC 1136 Gly→Cys, saturation mutagenesis): 1000 µg/mL
- MBC ([4]; rpoC 1137 Gly→Ala, saturation mutagenesis): 500 µg/mL
- MBC ([4]; rpoC 1137 Gly→Arg, saturation mutagenesis): 1000 µg/mL
- MBC ([4]; rpoC 1240 Val→Glu, saturation mutagenesis): 500 µg/mL
- MBC ([4]; rpoC 1241 Tyr→Cys, saturation mutagenesis): 100 µg/mL
- MBC ([4]; rpoC 1241 Tyr→His, saturation mutagenesis): 100 µg/mL
- MBC ([4]; rpoC 1241 Tyr→Ser, saturation mutagenesis): 100 µg/mL
- MBC ([4]; rpoC 1244 Gln→Glu, saturation mutagenesis): 100 µg/mL
- MBC ([4]; rpoC 1244 Gln→Leu, saturation mutagenesis): 500 µg/mL
- MBC ([4]; rpoC 1244 Gln→Pro, saturation mutagenesis): 100 µg/mL
- MBC ([4]; rpoC 1247 Lys→Gln, saturation mutagenesis): 100 µg/mL
- MBC ([4]; rpoC 1247 Lys→Glu, saturation mutagenesis): 100 µg/mL
- MBC ([4]; rpoC 1248 Ile→Ser, saturation mutagenesis): 100 µg/mL
- MBC ([4]; β′ 424 Asn→Ser, random mutagenesis, single mutant constructed using site-directed mutagenesis): 100 µg/mL
- MBC ([4]; β′ 428 Thr→Ile, random mutagenesis): 500 µg/mL
- MBC ([4]; β′ 430 His→Leu, random mutagenesis): 500 µg/mL
- MBC ([4]; β′ 464 Asp→Gly, random mutagenesis): 0 µg/mL
- MBC ([4]; β′ 469 His→Arg, random mutagenesis): 0 µg/mL
- MBC ([4]; β′ 504 Gln→Arg, random mutagenesis): 500 µg/mL
- MBC ([4]; β′ 733 Ser→Phe, random mutagenesis): 500 µg/mL
- MBC ([4]; β′ 738 Arg→Leu, random mutagenesis): 0 µg/mL
- MBC ([4]; β′ 776 Thr→Ile, random mutagenesis): 500 µg/mL
- MBC ([4]; β′ 779 Ala→Thr, random mutagenesis): 1000 µg/mL
- MBC ([4]; β′ 780 Arg→Cys, random mutagenesis): 1000 µg/mL
- MBC ([4]; β′ 782 Gly→Ala, random mutagenesis): 1000 µg/mL
- MBC ([4]; β′ 785 Asp→Gly, random mutagenesis): 500 µg/mL
- MBC ([4]; β′ 786 Thr→Ile, random mutagenesis): 500 µg/mL
- MBC ([4]; β′ 789 Lys→Arg, random mutagenesis): 500 µg/mL
- MBC ([4]; β′ 789 Lys→Gln, random mutagenesis): 1000 µg/mL
- MBC ([4]; β′ 869 Cys→Arg, random mutagenesis): 1000 µg/mL
- MBC ([4]; β′ 933 Arg→Cys, random mutagenesis): 1000 µg/mL
- MBC ([4]; β′ 1244 Gln→Leu, random mutagenesis): 500 µg/mL
